Measurements taken from the NIST ThermoML archive (doi:10.1016/j.jct.2019.02.027).
Several values for one entry are separate records, joined by “and”; a condition that tells them apart may be missing. Equal entries are not always repeated. Numbers after ± are expanded uncertainties.

Tests used:
[1] = 298.15 K; 101.33 kPa; Liquid; Vibrating tube method
[2] = xn = mol fraction of the nth substance listed; settings: 298.15 K, 100 kPa, Liquid, Vibrating tube method

CCCCCO [pentan-1-ol]
Settings	mass density [kg/m3]
[1]	810.9 ± 1

Cc1ccco1 [2-methylfuran] + CC(C)O
[2]
Settings	mass density [kg/m3]
x1 = 0.0267	785.02 ± 2.6
x1 = 0.0493	788.28 ± 2.6
x1 = 0.0908	794.29 ± 2.6
x1 = 0.1257	799.31 ± 2.6
x1 = 0.179	806.65 ± 2.6
x1 = 0.2619	817.86 ± 2.6
x1 = 0.2995	822.82 ± 2.6
x1 = 0.3935	835.05 ± 2.6
x1 = 0.537	853.23 ± 2.6
x1 = 0.6047	861.52 ± 2.6
x1 = 0.6784	870.65 ± 2.6
x1 = 0.7217	876.04 ± 2.6
x1 = 0.8122	886.89 ± 2.6
x1 = 0.8256	888.45 ± 2.6
x1 = 0.8759	894.66 ± 2.6
x1 = 0.9472	903.47 ± 2.6
x1 = 1	910.73 ± 2.4

CCO [ethanol] + O
[2]
Settings	mass density [kg/m3]
x1 = 0.0641	970.7 ± 3.1
x1 = 0.127	952.3 ± 2.7
x1 = 0.1461	950.1 ± 2.4
x1 = 0.2437	920.1 ± 2.8
x1 = 0.387	883.5 ± 2.7
x1 = 0.4238	876.2 ± 2.5
x1 = 0.7084	825.2 ± 2.4
x1 = 1	785.5 ± 2.3

CCCO [propan-1-ol] + O=Cc1ccco1
Settings	mass density [kg/m3]
[2], x2 = 0	799.97 ± 2.8

CCCC(C)O (configuration not stated) [pentan-2-ol] + O=Cc1ccco1
[2]
Settings	mass density [kg/m3]
x2 = 0	806.48 ± 3.8
x2 = 0.092	831.24 ± 3.9
x2 = 0.1912	859.17 ± 3.9
x2 = 0.2652	880.87 ± 3.9
x2 = 0.3627	910.83 ± 3.9
x2 = 0.4245	930.64 ± 3.9
x2 = 0.4984	955.28 ± 3.9
x2 = 0.5417	970.2 ± 3.9
x2 = 0.6211	998.57 ± 3.9
x2 = 0.6746	1018.53 ± 3.9
x2 = 0.7117	1032.71 ± 3.9
x2 = 0.7692	1055.38 ± 3.9
x2 = 0.8249	1078.15 ± 3.9
x2 = 0.879	1101.1 ± 4
x2 = 0.9111	1115.13 ± 4
x2 = 0.9542	1134.34 ± 4

CC(C)O [propan-2-ol] + O=Cc1ccco1
Settings	mass density [kg/m3]
[2], x2 = 0	780.95 ± 2.8

CCCCCCO [hexan-1-ol]
Settings	mass density [kg/m3]
[1]	815.9 ± 2.8

CCCCCCO [hexan-1-ol] + O=Cc1ccco1
Settings	mass density [kg/m3]
[2], x2 = 0	815.9 ± 3.8

CCO [ethanol]
Settings	mass density [kg/m3]
[1]	785.45 ± 1

CCCC(C)O (configuration not stated) [pentan-2-ol]
Settings	mass density [kg/m3]
[1]	806.48 ± 2.8

O=Cc1ccco1 [2-furaldehyde] + CCC(C)O
[2]
Settings	mass density [kg/m3]
x1 = 0.0237	810.18 ± 2.9
x1 = 0.0782	827.38 ± 2.9
x1 = 0.1343	845.24 ± 3
x1 = 0.1345	845.28 ± 3
x1 = 0.2696	889.52 ± 3
x1 = 0.2773	892.16 ± 3
x1 = 0.417	939.59 ± 3
x1 = 0.4498	951 ± 3
x1 = 0.535	980.92 ± 3
x1 = 0.6274	1014.08 ± 3
x1 = 0.6673	1028.58 ± 3
x1 = 0.7355	1053.74 ± 3
x1 = 0.803	1079.08 ± 3
x1 = 0.8794	1108.12 ± 3.1
x1 = 1	1155.45 ± 2.8

O=Cc1ccco1 [2-furaldehyde]
Settings	mass density [kg/m3]
[1]	1155.45 ± 2.8

CCCCCCO [hexan-1-ol] + Cc1ccco1
Settings	mass density [kg/m3]
[2], x2 = 0	815.9 ± 3.6

Cc1ccco1 [2-methylfuran]
Settings	mass density [kg/m3]
[1]	910.73 ± 2.2

CCCO [propan-1-ol]
Settings	mass density [kg/m3]
[1]	799.97 ± 0.64

O=Cc1ccco1 [2-furaldehyde] + CCCO
[2]
Settings	mass density [kg/m3]
x1 = 0.0847	834.01 ± 3
x1 = 0.134	853.46 ± 3
x1 = 0.2237	888 ± 3
x1 = 0.2415	894.81 ± 3
x1 = 0.2507	898.28 ± 3
x1 = 0.2827	910.39 ± 3
x1 = 0.3632	940.23 ± 3.1
x1 = 0.4309	964.88 ± 3.1
x1 = 0.5022	990.31 ± 3.1
x1 = 0.6164	1030.13 ± 3.1
x1 = 0.7194	1065 ± 3.1
x1 = 0.7803	1085.14 ± 3.1
x1 = 0.8714	1114.75 ± 3.2
x1 = 0.9006	1124.2 ± 3.2
x1 = 0.9038	1125.2 ± 3.2
x1 = 1	1155.45 ± 2.8

Cc1ccco1 [2-methylfuran] + CCCC(C)O
[2]
Settings	mass density [kg/m3]
x1 = 0.0907	813.42 ± 3.6
x1 = 0.1322	816.51 ± 3.6
x1 = 0.1794	820.47 ± 3.6
x1 = 0.2576	827.04 ± 3.6
x1 = 0.3029	831.05 ± 3.6
x1 = 0.4278	842.47 ± 3.6
x1 = 0.4997	849.64 ± 3.6
x1 = 0.6108	861.2 ± 3.6
x1 = 0.6993	871.1 ± 3.6
x1 = 0.7296	874.59 ± 3.6
x1 = 0.8143	884.9 ± 3.6
x1 = 0.8675	891.71 ± 3.6
x1 = 0.9023	896.39 ± 3.6
x1 = 0.9441	902.21 ± 3.6
x1 = 1	910.73 ± 3.6

O=Cc1ccco1 [2-furaldehyde] + CC(C)O
[2]
Settings	mass density [kg/m3]
x1 = 0.0534	803.11 ± 3
x1 = 0.0877	817.2 ± 3
x1 = 0.1839	856.01 ± 3
x1 = 0.2041	864.12 ± 3
x1 = 0.2517	882.87 ± 3
x1 = 0.2794	893.74 ± 3
x1 = 0.2855	896.16 ± 3
x1 = 0.4063	942.61 ± 3.1
x1 = 0.5153	983.56 ± 3.1
x1 = 0.5364	991.32 ± 3.1
x1 = 0.5702	1003.8 ± 3.1
x1 = 0.6564	1035.2 ± 3.1
x1 = 0.7345	1063.04 ± 3.1
x1 = 0.8252	1094.94 ± 3.2
x1 = 0.9055	1122.98 ± 3.2
x1 = 1	1155.45 ± 2.8

Cc1ccco1 [2-methylfuran] + CCCCCCO
[2]
Settings	mass density
x1 = 0.048	819.02 ± 3.7 kg/m3
x1 = 0.0765	820.93 ± 3.7 kg/m3
x1 = 0.1423	825.44 ± 3.7 kg/m3
x1 = 0.2086	830.14 ± 3.7 kg/m3
x1 = 0.2804	835.45 ± 3.7 kg/m3
x1 = 0.3598	841.72 ± 3.7 kg/m3
x1 = 0.4591	850.07 ± 3.7 kg/m3
x1 = 0.4916	852.91 ± 3.7 kg/m3
x1 = 0.5728	860.42 ± 3.7 kg/m3
x1 = 0.6478	867.88 ± 3.7 kg/m3
x1 = 0.7472	878.45 ± 3.7 kg/m3 and 878.33 ± 3.7 kg/m3
x1 = 0.7965	884.09 ± 3.7 kg/m3
x1 = 0.8596	891.67 ± 3.7 kg/m3
x1 = 0.888	895.23 ± 3.7 kg/m3
x1 = 0.9411	902.08 ± 3.7 kg/m3
x1 = 1	910.73 ± 3.6 kg/m3

CCC(C)O (configuration not stated) [butan-2-ol] + Cc1ccco1
Settings	mass density [kg/m3]
[2], x2 = 0	802.88 ± 2.4

O=Cc1ccco1 [2-furaldehyde] + CCCCCO
[2]
Settings	mass density [kg/m3]
x1 = 0.0837	833.12 ± 2.9
x1 = 0.1212	843.42 ± 2.9
x1 = 0.1906	863.01 ± 2.9
x1 = 0.2617	883.85 ± 2.9
x1 = 0.2997	895.29 ± 2.9
x1 = 0.3856	922.11 ± 2.9
x1 = 0.4254	934.98 ± 2.9
x1 = 0.5075	962.35 ± 2.9
x1 = 0.5396	973.38 ± 2.9
x1 = 0.6236	1003.18 ± 3
x1 = 0.708	1034.59 ± 3
x1 = 0.7358	1045.18 ± 3
x1 = 0.7671	1057.41 ± 3
x1 = 0.8967	1110.25 ± 3
x1 = 0.9015	1112.3 ± 3
x1 = 1	1155.45 ± 2.8

CCCCCO [pentan-1-ol] + Cc1ccco1
Settings	mass density [kg/m3]
[2], x2 = 0	810.9 ± 2.4

O=Cc1ccco1 [2-furaldehyde] + CCCCCCO
[2]
Settings	mass density [kg/m3]
x1 = 0.0958	837.47 ± 3.9
x1 = 0.1364	847.08 ± 3.9
x1 = 0.1378	847.41 ± 3.9
x1 = 0.2218	868.43 ± 3.9
x1 = 0.2573	877.76 ± 3.9
x1 = 0.2623	879.07 ± 3.9
x1 = 0.2983	888.83 ± 3.9
x1 = 0.3699	909.14 ± 3.9
x1 = 0.4124	921.74 ± 3.9
x1 = 0.4947	947.51 ± 3.9
x1 = 0.4965	948.07 ± 3.9
x1 = 0.5802	976.2 ± 3.9
x1 = 0.6437	998.96 ± 3.9
x1 = 0.7375	1035.07 ± 3.9
x1 = 0.7661	1046.67 ± 3.9
x1 = 0.7703	1048.36 ± 3.9
x1 = 0.847	1081.45 ± 3.9
x1 = 0.8939	1102.9 ± 3.9
x1 = 1	1155.45 ± 3.8

CC(C)O [propan-2-ol]
Settings	mass density [kg/m3]
[1]	780.95 ± 1

CC(C)O [propan-2-ol] + Cc1ccco1
Settings	mass density [kg/m3]
[2], x2 = 0	780.95 ± 2.4

CCCC(C)O (configuration not stated) [pentan-2-ol] + Cc1ccco1
Settings	mass density [kg/m3]
[2], x2 = 0	806.48 ± 3.6

CCC(C)O (configuration not stated) [butan-2-ol]
Settings	mass density [kg/m3]
[1]	802.88 ± 1

Cc1ccco1 [2-methylfuran] + CCCCCO
[2]
Settings	mass density [kg/m3]
x1 = 0.1002	819.28 ± 2.5
x1 = 0.1263	821.43 ± 2.5
x1 = 0.1771	825.74 ± 2.5
x1 = 0.22	829.43 ± 2.5
x1 = 0.2723	834 ± 2.5
x1 = 0.3399	840.06 ± 2.5
x1 = 0.4257	848.01 ± 2.5
x1 = 0.4599	851.26 ± 2.5
x1 = 0.5134	856.49 ± 2.5
x1 = 0.593	864.51 ± 2.5
x1 = 0.6556	871.07 ± 2.5
x1 = 0.7006	875.92 ± 2.5
x1 = 0.7559	881.98 ± 2.5
x1 = 0.8293	890.24 ± 2.5
x1 = 0.8836	896.44 ± 2.5
x1 = 1	910.73 ± 2.4

Cc1ccco1 [2-methylfuran] + CCC(C)O
[2]
Settings	mass density [kg/m3]
x1 = 0.0549	808.11 ± 2.8
x1 = 0.0656	809.45 ± 2.8
x1 = 0.0952	812.22 ± 2.8
x1 = 0.1847	821.08 ± 2.8
x1 = 0.2954	831.67 ± 2.8
x1 = 0.3763	839.84 ± 2.8
x1 = 0.4673	849.03 ± 2.8
x1 = 0.5696	859.9 ± 2.8
x1 = 0.6998	873.97 ± 2.8
x1 = 0.7611	881.06 ± 2.8
x1 = 0.8132	887.16 ± 2.9
x1 = 0.8548	891.9 ± 2.9
x1 = 0.8832	895.12 ± 2.9
x1 = 0.8998	897.35 ± 2.9
x1 = 0.9091	898.45 ± 2.9
x1 = 0.9333	901.44 ± 2.9
x1 = 1	910.73 ± 2.4

CCC(C)O (configuration not stated) [butan-2-ol] + O=Cc1ccco1
Settings	mass density [kg/m3]
[2], x2 = 0	802.88 ± 2.8

O=Cc1ccco1 [2-furaldehyde] + CCCC(C)O
Settings	mass density [kg/m3]
[2], x1 = 1	1155.45 ± 3.8

CCCCCO [pentan-1-ol] + O=Cc1ccco1
Settings	mass density [kg/m3]
[2], x2 = 0	810.9 ± 2.8
